Experimental data: ChEMBL document CHEMBL4033680, “Derivatives of caffeic acid, a natural antioxidant, as the basis for the discovery of novel nonpeptidic neurotrophic agents” (2017)
Calls of active or inactive are those of the source. No cut-off for these calls is given here.

Columns and labels:
[1] = target: RAC-alpha serine/threonine-protein kinase (Rattus norvegicus) (UniProt P47196); experiment: Increase in NGF-induced AKT phosphorylation in rat PC12 cells at 5 to 25 uM after 2 hrs by immunoblotting method; type: cell-based
PC-12 [2] = experiment: Potentiation of NGF-induced neuronal differentiation in rat PC12 cells assessed as increase in number of neurites at 25 uM after 8 days by phase contrast micoscopy; type: functional, cell-based
PC-12 [3] = experiment: Potentiation of NGF-induced neuronal differentiation in rat PC12 cells assessed as increase in number of neurites at 1 uM after 8 days by phase contrast micoscopy; type: functional, cell-based
[4] = target: T1, Mitogen-activated protein kinase 1 and 3 (ERK2 and ERK1) (Rattus norvegicus) (UniProt P63086+P21708); experiment: Increase in ERK1/2 phosphorylation in rat PC12 cells after 2 hrs by immunoblotting method; type: cell-based
[5] = target: RAC-alpha serine/threonine-protein kinase (Rattus norvegicus) (UniProt P47196); experiment: Increase in AKT phosphorylation in rat PC12 cells at 5 to 25 uM after 2 hrs by immunoblotting method; type: cell-based
[6] = target: High affinity nerve growth factor receptor (Rattus norvegicus) (UniProt P35739); experiment: Activation of TrkA in rat PC12 cells assessed as increase in phospho-TrkA levels at 5 to 25 uM after 60 mins by Western blot method; type: cell-based
PC-12 [7] = experiment: Potentiation of NGF-induced neuronal differentiation in rat PC12 cells assessed as increase in number of neurites longer than 100 umeter at 25 uM after 8 days by phase contrast micoscopy; type: functional, cell-based
PC-12 [8] = experiment: Neuroprotective activity against serum deprivation-induced cell death in rat PC12 cells assessed as cell survival at 25 uM after 48 hrs by MTT assay relative to control; type: functional; settings: PC-12, 48 h, read-out: Survival
[9] = target: T1, Mitogen-activated protein kinase 1 and 3 (ERK2 and ERK1) (Rattus norvegicus); experiment: Increase in NGF-induced ERK1/2 phosphorylation in rat PC12 cells at 5 to 25 uM after 2 hrs by immunoblotting method; type: cell-based
PC-12 [10] = experiment: Potentiation of NGF-induced neuronal differentiation in rat PC12 cells assessed as increase in number of neurites longer than 100 umeter at 5 uM after 8 days by phase contrast micoscopy; type: functional, cell-based
PC-12 [11] = experiment: Neuroprotective activity against serum deprivation-induced cell death in rat PC12 cells assessed as increase in cell survival at 25 uM after 48 hrs in presence of TrkA inhibitor K252a by MTT assay; type: functional, cell-based
[12] = target: High affinity nerve growth factor receptor (Rattus norvegicus) (UniProt P35739); experiment: Potentiation of NGF-induced TrkA phosphorylation in rat PC12 cells at 5 to 25 uM after 60 mins by Western blot method; type: cell-based
PC-12 [13] = experiment: Potentiation of NGF-induced neuronal differentiation in rat PC12 cells assessed as increase in number of neurites at 5 uM after 8 days by phase contrast micoscopy; type: functional, cell-based
PC-12 [14] = experiment: Induction of neurite outgrowth in rat PC12 cells assessed as increase in total number of neurites at 5 to 25 uM after 8 days by phase contrast micoscopy; type: functional, cell-based
PC-12 [15] = experiment: Potentiation of NGF-induced neuronal differentiation in rat PC12 cells assessed as increase in number of neurites after 8 days by phase contrast micoscopy; type: functional, cell-based

Chain of High affinity nerve growth factor receptor (Rattus norvegicus) (P35739 whole entry): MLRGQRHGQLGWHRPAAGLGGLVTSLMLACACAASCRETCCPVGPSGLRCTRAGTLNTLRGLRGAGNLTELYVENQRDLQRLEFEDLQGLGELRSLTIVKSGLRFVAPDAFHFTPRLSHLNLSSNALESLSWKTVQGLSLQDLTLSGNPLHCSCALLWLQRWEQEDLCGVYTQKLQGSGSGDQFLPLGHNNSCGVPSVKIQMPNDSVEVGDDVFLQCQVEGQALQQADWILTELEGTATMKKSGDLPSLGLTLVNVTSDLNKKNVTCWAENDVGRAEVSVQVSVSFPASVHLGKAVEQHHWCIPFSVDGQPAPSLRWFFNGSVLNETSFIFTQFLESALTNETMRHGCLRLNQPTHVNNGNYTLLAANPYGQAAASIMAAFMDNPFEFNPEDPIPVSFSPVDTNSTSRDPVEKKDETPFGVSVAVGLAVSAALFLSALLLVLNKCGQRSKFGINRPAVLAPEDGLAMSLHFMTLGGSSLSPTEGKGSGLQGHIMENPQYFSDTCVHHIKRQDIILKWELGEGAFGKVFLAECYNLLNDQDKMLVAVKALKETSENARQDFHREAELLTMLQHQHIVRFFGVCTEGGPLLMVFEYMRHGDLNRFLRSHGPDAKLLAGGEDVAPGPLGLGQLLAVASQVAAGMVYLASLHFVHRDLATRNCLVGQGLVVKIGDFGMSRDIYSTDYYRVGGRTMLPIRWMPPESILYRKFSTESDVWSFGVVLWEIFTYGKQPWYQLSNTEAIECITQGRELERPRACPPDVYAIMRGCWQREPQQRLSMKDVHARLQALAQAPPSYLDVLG
T1 sequence (P21708 whole entry, looked up): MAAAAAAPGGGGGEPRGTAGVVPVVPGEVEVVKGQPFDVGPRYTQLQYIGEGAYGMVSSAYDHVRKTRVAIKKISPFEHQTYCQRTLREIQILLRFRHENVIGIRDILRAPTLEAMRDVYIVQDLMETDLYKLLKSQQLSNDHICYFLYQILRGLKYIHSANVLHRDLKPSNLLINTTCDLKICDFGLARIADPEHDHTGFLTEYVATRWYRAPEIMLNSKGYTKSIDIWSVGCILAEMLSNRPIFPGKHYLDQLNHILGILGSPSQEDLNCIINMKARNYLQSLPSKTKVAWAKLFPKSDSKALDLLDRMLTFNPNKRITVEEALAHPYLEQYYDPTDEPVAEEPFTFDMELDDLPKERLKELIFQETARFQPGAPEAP
T1 sequence (P63086 whole entry, looked up): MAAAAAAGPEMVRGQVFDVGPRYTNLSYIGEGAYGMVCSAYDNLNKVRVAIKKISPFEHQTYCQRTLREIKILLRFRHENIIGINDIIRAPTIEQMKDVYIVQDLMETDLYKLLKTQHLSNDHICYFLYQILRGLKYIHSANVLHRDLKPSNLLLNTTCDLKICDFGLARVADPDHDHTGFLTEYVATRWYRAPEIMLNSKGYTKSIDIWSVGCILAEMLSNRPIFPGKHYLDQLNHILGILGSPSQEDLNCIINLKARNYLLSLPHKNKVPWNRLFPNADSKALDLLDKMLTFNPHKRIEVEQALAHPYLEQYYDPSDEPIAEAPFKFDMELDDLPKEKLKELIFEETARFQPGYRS
Chain of RAC-alpha serine/threonine-protein kinase (Rattus norvegicus) (P47196 whole entry): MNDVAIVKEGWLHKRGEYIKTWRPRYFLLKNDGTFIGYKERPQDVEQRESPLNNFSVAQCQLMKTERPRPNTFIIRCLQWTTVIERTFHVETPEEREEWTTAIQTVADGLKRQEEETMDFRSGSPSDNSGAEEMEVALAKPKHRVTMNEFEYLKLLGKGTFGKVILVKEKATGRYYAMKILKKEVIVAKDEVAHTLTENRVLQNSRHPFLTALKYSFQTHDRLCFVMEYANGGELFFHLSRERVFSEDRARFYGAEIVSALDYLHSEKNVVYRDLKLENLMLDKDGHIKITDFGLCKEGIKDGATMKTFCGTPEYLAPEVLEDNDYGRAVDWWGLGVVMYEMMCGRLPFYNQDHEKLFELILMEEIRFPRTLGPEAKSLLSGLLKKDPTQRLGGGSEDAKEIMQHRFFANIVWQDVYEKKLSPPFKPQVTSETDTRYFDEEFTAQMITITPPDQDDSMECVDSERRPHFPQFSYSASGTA

SMILES: CCCCNC(=O)/C=C/c1ccc(O)c(O)c1
- Activity [1]: inactive
- Activity (PC-12 [2]): Active
- Activity (PC-12 [3]): inactive
- Activity [4]: Dose-dependent effect
- Activity [5]: inactive
- Activity [6]: inactive
- Activity (PC-12 [7]): Active
- viability at 25 µM (PC-12 [8]): 202%
- Activity [9]: Active
- Activity (PC-12 [10]): Active
- Activity (PC-12 [11]): inactive
- Activity [12]: inactive
- Activity (PC-12 [13]): Active
- Activity (PC-12 [14]): inactive

SMILES: CCCCCCNC(=O)/C=C/c1ccc(O)c(O)c1 [CAFFEOYLHEXYLAMIDE]
- Activity (PC-12 [2]): Active
- Activity (PC-12 [3]): inactive
- Activity (PC-12 [7]): Active
- viability at 25 µM (PC-12 [8]): 183%
- Activity (PC-12 [10]): Active
- Activity (PC-12 [11]): inactive
- Activity (PC-12 [13]): Active
- Activity (PC-12 [14]): inactive

SMILES: CCCNC(=O)/C=C/c1ccc(O)c(O)c1
- Activity (PC-12 [2]): Active
- Activity (PC-12 [3]): inactive
- Activity (PC-12 [7]): Active
- viability at 25 µM (PC-12 [8]): 158%
- Activity (PC-12 [11]): inactive
- Activity (PC-12 [14]): inactive

SMILES: CCCCCCCCCCCCNC(=O)/C=C/c1ccc(O)c(O)c1
- Activity [1]: inactive
- Activity [4]: Dose-dependent effect
- Activity [5]: Active
- Activity [6]: inactive
- viability at 25 µM (PC-12 [8]): 230%
- Activity [9]: Active
- Activity (PC-12 [11]): inactive
- Activity [12]: inactive
- Activity (PC-12 [15]): inactive

SMILES: CCCCCCCCNC(=O)/C=C/c1ccc(O)c(O)c1
- Activity (PC-12 [2]): Active
- Activity (PC-12 [3]): inactive
- Activity (PC-12 [7]): Active
- viability at 25 µM (PC-12 [8]): 158%
- Activity (PC-12 [10]): Active
- Activity (PC-12 [11]): inactive
- Activity (PC-12 [13]): Active
- Activity (PC-12 [14]): inactive

SMILES: CCCCCCCCCCNC(=O)/C=C/c1ccc(O)c(O)c1
- viability at 25 µM (PC-12 [8]): 193%
- Activity (PC-12 [11]): inactive
- Activity (PC-12 [15]): inactive
